Reference: patent US11919898B2, “Crystal form of azaindole derivative and use thereof” (Wuxi Life Fountain Biotech Co., Ltd, priority 2020, dated 2024)
Read-outs that look alike come from different tables or passages of the source.

Tests used:
[1] = Solubility test in media of various pH (water, SGF, FaSSIF, FeSSIF); assay type: physicochemical; conditions: for solubility at 24 h: read-out: Solubility (mg/ml)_24 h
Procedure: The solubility of the crystal form A of the compound of Formula (II) in 4 media with different pH values was tested. About 10 mg of the crystal form A of the compound of Formula (II) was weighed, and then 5.0 mL of different media (water, SGF, FaSSIF, and FeSSIF) were added respectively, to form a suspension. A magnetron was added to the suspension and the suspension was stirred on a magnetic stirrer for 2 hrs, and a sample was taken and centrifuged after 4 hrs. The sample in the upper layer was determined for concentration by HPLC and determined for the pH value.
• FaSSIF: (1). 0.042 g of sodium hydroxide, 0.3438 g of sodium dihydrogen phosphate and 0.6186 g of sodium chloride were weighed, added to 90 mL of purified water and mixed well. The solution was adjusted to pH 6.5 with 1 N hydrochloric acid or 1 N sodium hydroxide, and made up to 100 mL with purified water. (2). 0.224 g of commercially available powder of FaSSIF/FeSSIF/FaSSGF was added to 50 mL of the buffer, stirred until dissolved, and made up to 100 mL with purified water. The prepared buffer was left to stand at room temperature for 2 hrs, and observed to be slightly milky white, which was ready for use (simulating intestinal juice in human before eating). • FeSSIF: (1). 0.404 g of sodium hydroxide, and 0.865 g of glacial acetic acid, 1.1874 g of sodium chloride were weighed and added to 90 mL of purified water and mixed well. The solution was adjusted to pH 5.0 with 1 N hydrochloric acid or 1 N sodium hydroxide, and made up to 100 mL with purified water. (2). 1.12 g of commercially available powder of FaSSIF/FeSSIF/FaSSGF was added to 50 mL of the buffer, stirred until dissolved, and made up to 100 mL with purified water. The prepared buffer was left to stand at room temperature for 2 hrs, and observed to be a clear liquid, which was ready for use (simulating intestinal juice in human after eating). • FaSSGF (SGF): (1). 0.2 g of sodium chloride was weighed and added to 90 mL of purified water and mixed well. The solution was adjusted to pH 1.8 with 1 N hydrochloric acid, made up to 100 mL with purified water, and left to stand until it was naturally cooled to room temperature (simulating human gastric juice before eating).

[2] = Hygroscopicity test by dynamic vapor sorption (DVS); assay type: physicochemical
Procedure: Dynamic Vapor Sorption (DVS) of the Present Invention • Instrument model: SMS DVS Intrinsic Dynamic Vapor Sorption Analyzer • Test method: A sample (10-30 mg) is tested in a DVS sample pan. Detailed DVS Parameters: • Temperature: 25° C. • Equilibration: dm/dt=0.002%/min (Minimum: 10 min, Maximum: 180 min) • RH (%) test interval: 10 (0-90%), 5 (90-95%) • RH (%) test interval range: 0-95-0 Hygroscopicity evaluations are classified as follows: [table] Note: AW % represents the hygroscopic weight gain of the test product at 25° C./80% RH. Experimental Method: • 10-30 mg of the crystal form A of the compound of Formula (II) was placed in the DVS sample pan and tested. Experimental Method: • 10-30 mg of the crystal form G of the compound of Formula (III) was placed in the DVS sample pan and tested. Experimental Method: • 10-30 mg of the crystal form J of the compound of Formula (IV) was placed in the DVS sample pan and tested.

SNU-16 xenograft model = experiment: In vivo pharmacodynamic evaluation, SNU-16 xenograft model; parameters: species or system nude mice; conditions: for TGI % (the last dose is given on day 30): SNU-16 xenograft model, nude mice
Procedure: SNU-16 cells in logarithmic growth phase were harvested, counted and resuspended in 50% PBS (pH 7.4, 0.01 M) and 50% Matrigel. The cell concentration was adjusted to 4×10^7 cells/mL, and the cells were then placed in an ice box. The cell suspension was aspirated with a 1 mL syringe and injected subcutaneously into the anterior right axilla of nude mice, at a dose of 200 μL/animal (8×10^6 cells/animal) to establish a SNU-16 xenograft model. The animal status was observed periodically, and the tumor size was measured using an electronic vernier caliper. The data was entered into an Excel spreadsheet, and the tumor volume was calculated, to monitor the tumor growth. When the tumor volume reached 100-300 mm^3, 35 tumor-bearing mice (with a tumor volume of 112-182 mm^3) in good health status having similar tumor volume were selected and randomized into 5 groups (n=7). The average tumor volume in each group was about 150 mm^3. After the test was started, the tumor size was measured twice a week, the tumor volume was calculated, and the body weight of the animal was weighed and recorded.
Analysis of tumor growth inhibition (TGI): The evolutionary growth potential of tumors was evaluated by the relationship between the tumor volume and time. The long axis (L) and short axis (W) of subcutaneous tumor were measured twice a week by a caliper, and the tumor volume (TV) was calculated by the formula ((L×W^2)/2). TGI was calculated from the difference between the median tumor volume of the mice in the solvent group and the median tumor volume of the mice in the drug group, and expressed as a percentage relative to the median tumor volume in the solvent control group.
The test data was calculated and statistically processed by SPSS19.0. Unless otherwise specified, the data were expressed as mean±standard error (Mean±SE), and the comparison between the two groups was analyzed by T-test. […] The solvent 30% PEG400 (containing 70% deionized water, v/v) alone was used as the negative control.

## COc1cc(OC)c(F)c(Cc2c[nH]c3ncc(-c4cnn(CCO)c4)cc23)c1F.Cl
[1]; SGF (FaSSGF), pH 1.25, simulated gastric fluid, thermodynamic from solid, SGF, pH (24 h) 1.25, suspension
  solubility at 24 h: 0.112 mg/mL
[1]; pH 4.89, thermodynamic from solid, FeSSIF, pH (24 h) 4.89, suspension
  solubility at 24 h: 0.252 mg/mL
[1]; pH 5.55, thermodynamic from solid, FaSSIF, pH (24 h) 5.55, suspension
  solubility at 24 h: 0.004 mg/mL
[1]; simulated gastric juice before eating in human (SGF)
  Solubility in words: good
[1]; simulated intestinal juice before eating (FaSSIF)
  Solubility in words: poor
[1]; simulated intestinal juice of the small intestine after eating in human (FeSSIF)
  Solubility in words: good
[1]; water
  Solubility in words: hard to dissolve in water
[1]; water, pH 2.42, water, thermodynamic from solid
  solubility at 24 h: 0.009 mg/mL
[2]; 25° C. and 80% RH, DVS
  ΔW, hygroscopic weight gain: 0.3710%
[2]; 25° C./80% RH
  Classification of hygroscopicity: slightly hygroscopic
SNU-16 xenograft model; 2.5 mg/kg BID
  TGI % (the last dose is given on day 30): 72%
SNU-16 xenograft model; 5.0 mg/kg BID
  TGI % (the last dose is given on day 30): 86%
SNU-16 xenograft model; tumor model SNU-16, nude mice
  Tumor inhibitory effect: excellent tumor inhibitory effect
